# Legend:
# [1] = target: T1, EGFR (L858R T790M C797S) (Homo sapiens, UniProt P00533, C797S/L858R/T790M); assay: Biochemical EGFR inhibition assay (Caliper mobility shift), EGFR LRTMCS mutant; conditions: inhibitory activity against EGFR LRTMCS mutant; apparent IC50; read-out: Ext Enz LRTMCS
# T1 construct: purchased SignalChem E10-122VG
# Method in brief: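 Caliper mobility shift read-out: product and substrate peptides separated by electrophoresis and quantified. Reactions at 25° C. taken to 10–20% peptide phosphorylation, quenched with 35 mM EDTA. Apparent IC50 from percent activity vs log [compound].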
# [2] = test system: phosphorylation of EGFR (Tyr1068) in NCI-H1975 cell line that harbors the EGFR L858R T790M mutations; assay: NCI-H1975 pEGFR AlphaLISA assay; format: cell-based; conditions: Homo sapiens, NCI-H1975, inhibition of phosphorylation of mutant EGFR in NCI-H1975 cells; 4-5 hours incubation; read-out: Ext pEGFR H1975
# Method in brief: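 NCI-H1975 cells (EGFR L858R/T790M) seeded overnight, then treated with compound for 4-5 h at 37 °C/5% CO2. After lysis, p-EGFR (Tyr1068) quantified by AlphaLISA SureFire Ultra with acceptor then donor beads; IC50 fitted from percent inhibition versus log concentration.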
# T1 sequence (P00533 25-1210 T790M/C797S/L858R): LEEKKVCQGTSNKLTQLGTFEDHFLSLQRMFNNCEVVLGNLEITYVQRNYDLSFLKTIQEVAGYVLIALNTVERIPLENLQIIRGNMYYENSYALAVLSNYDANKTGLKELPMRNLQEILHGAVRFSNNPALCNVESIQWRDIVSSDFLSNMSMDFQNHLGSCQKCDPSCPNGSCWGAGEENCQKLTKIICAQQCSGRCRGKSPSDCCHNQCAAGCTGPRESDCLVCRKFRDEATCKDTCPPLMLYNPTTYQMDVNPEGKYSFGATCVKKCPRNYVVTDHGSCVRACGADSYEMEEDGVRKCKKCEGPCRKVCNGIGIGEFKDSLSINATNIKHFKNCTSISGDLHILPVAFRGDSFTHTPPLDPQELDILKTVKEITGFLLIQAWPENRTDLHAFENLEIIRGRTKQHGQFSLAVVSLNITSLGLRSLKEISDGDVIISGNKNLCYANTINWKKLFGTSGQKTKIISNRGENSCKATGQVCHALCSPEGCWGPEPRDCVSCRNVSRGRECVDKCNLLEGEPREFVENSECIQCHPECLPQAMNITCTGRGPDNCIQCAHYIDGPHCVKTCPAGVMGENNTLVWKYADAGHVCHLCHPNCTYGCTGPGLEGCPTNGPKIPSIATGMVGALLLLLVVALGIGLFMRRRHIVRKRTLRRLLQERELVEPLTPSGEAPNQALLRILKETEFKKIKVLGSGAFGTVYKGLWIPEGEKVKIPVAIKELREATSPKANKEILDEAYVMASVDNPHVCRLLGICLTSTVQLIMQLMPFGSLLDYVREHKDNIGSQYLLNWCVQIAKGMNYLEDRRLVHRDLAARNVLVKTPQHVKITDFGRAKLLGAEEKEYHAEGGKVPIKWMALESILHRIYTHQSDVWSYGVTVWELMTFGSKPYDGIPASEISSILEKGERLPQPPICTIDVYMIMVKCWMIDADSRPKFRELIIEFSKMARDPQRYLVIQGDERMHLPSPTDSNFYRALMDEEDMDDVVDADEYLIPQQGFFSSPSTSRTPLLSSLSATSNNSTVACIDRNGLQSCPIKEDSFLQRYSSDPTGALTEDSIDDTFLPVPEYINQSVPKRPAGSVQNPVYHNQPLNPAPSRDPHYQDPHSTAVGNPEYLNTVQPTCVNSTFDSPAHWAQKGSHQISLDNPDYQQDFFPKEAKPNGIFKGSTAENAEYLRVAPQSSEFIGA
IC50 [1] [nM],IC50 [2] [nM],Structure (SMILES)
≤ 15,10.1 to 20,"CC(C)c1ccc(N2CC(CS(C)(=O)=O)C2)c2cnc(Nc3ccnc(N4CC[C@](C)(O)[C@](C)(F)C4)n3)cc12 (single isomer, unassigned) [Compound 113, (3R,4S)-3-fluoro-1-[4-({8-[3-(methanesulfonylmethyl)azetidin-1-yl]-5-(propan-2-yl)isoquinolin-3-yl}amino)pyrimidin-2-yl]-3,4-dimethylpiperidin-4-ol or (3S,4R)-3-fluoro-1-[4-({8-[3-(methanesulfonylmethyl)azetidin-1-yl]-5-(propan-2-yl)isoquinolin-3-yl}amino)pyrimidin-2-yl]-3,4-dimethylpiperidin-4-ol]"
30.1 to 100,30.1 to 50,"CC(C)c1ccc(N2CC(CS(C)(=O)=O)C2)c2cnc(Nc3ccnc(N4CC[C@](C)(O)[C@@](C)(F)C4)n3)cc12 (single isomer, unassigned) [Compound 114, (3S,4S)-3-fluoro-1-[4-({8-[3-(methanesulfonylmethyl)azetidin-1-yl]-5-(propan-2-yl)isoquinolin-3-yl}amino)pyrimidin-2-yl]-3,4-dimethylpiperidin-4-ol or (3R,4R)-3-fluoro-1-[4-({8-[3-(methanesulfonylmethyl)azetidin-1-yl]-5-(propan-2-yl)isoquinolin-3-yl}amino)pyrimidin-2-yl]-3,4-dimethylpiperidin-4-ol]"
≤ 15,≤ 10,"CC[C@]1(F)CN(c2nccc(Nc3cc4c(C(C)C)ccc(N5CC(CS(C)(=O)=O)C5)c4cn3)n2)CC[C@H]1O (single isomer, unassigned) [Compound 115, (3S,4R)-3-ethyl-3-fluoro-1-[4-({8-[3-(methanesulfonylmethyl)azetidin-1-yl]-5-(propan-2-yl)isoquinolin-3-yl}amino)pyrimidin-2-yl]piperidin-4-ol or (3R,4S)-3-ethyl-3-fluoro-1-[4-({8-[3-(methanesulfonylmethyl)azetidin-1-yl]-5-(propan-2-yl)isoquinolin-3-yl}amino)pyrimidin-2-yl]piperidin-4-ol]"
≤ 15,10.1 to 20,"Cc1cc(C(C)C)c2cc(Nc3ccnc(N4CC[C@@H](O)[C@@](C)(F)C4)n3)ncc2c1N1CC(CS(C)(=O)=O)C1 (single isomer, unassigned) [Compound 116]"
15.1 to 20,≤ 10,"CC(C)c1ccc(N2C[C@@H](CS(C)(=O)=O)[C@H]2C)c2cnc(Nc3ccnc(N4CC[C@](C)(O)[C@H](F)C4)n3)cc12 (single isomer, unassigned) [Compound 121]"
≤ 15,≤ 10,"CCS(=O)(=O)CC1CN(c2ncc(C(C)C)c3cc(Nc4ccnc(N5CC[C@@H](O)[C@@](C)(F)C5)n4)ncc23)C1 (single isomer, unassigned) [Compound 124]"
≤ 15,≤ 10,"CC(C)c1cnc(N2CC([C@H](C)S(C)(=O)=O)C2)c2cnc(Nc3ccnc(N4CC[C@@H](O)[C@@](C)(F)C4)n3)cc12 (single isomer, unassigned) [Compound 126]"
≤ 15,≤ 10,"CC(C)c1cnc(N2CC([C@@H](C)S(C)(=O)=O)C2)c2cnc(Nc3ccnc(N4CC[C@@H](O)[C@@](C)(F)C4)n3)cc12 (single isomer, unassigned) [Compound 127]"
≤ 15,≤ 10,"CC(C)c1ncc(N2C[C@H](CS(C)(=O)=O)[C@H]2C)c2cnc(Nc3ccnc(N4CC[C@@H](O)[C@@](C)(F)C4)n3)cc12 (single isomer, unassigned) [Compound 129]"
≤ 15,≤ 10,"CC(C)c1ccc(N2C[C@H](CS(C)(=O)=O)[C@H]2C)c2cnc(Nc3cnnc(N4CC[C@@H](O)[C@@](C)(F)C4)n3)cc12 (single isomer, unassigned) [Compound 130]"
≤ 15,≤ 10,"CC(C)c1cnc(N2C[C@H](CS(C)(=O)=O)[C@H]2C)c2cnc(Nc3ccnc(N4CC[C@](C)(O)[C@H](F)C4)n3)cc12 (single isomer, unassigned) [Compound 135]"
≤ 15,10.1 to 20,"CC(C)c1ncc(N2C[C@H](CS(C)(=O)=O)[C@H]2C)c2cnc(Nc3ccnc(N4CC[C@](C)(O)[C@H](F)C4)n3)cc12 (single isomer, unassigned) [Compound 136]"
≤ 15,≤ 10,"CC(C)c1cnc(N2C[C@H](CS(C)(=O)=O)[C@H]2C)c2cnc(Nc3ccnc(N4CC[C@@](C)(O)[C@@H](F)C4)n3)cc12 (single isomer, unassigned) [Compound 137]"
≤ 15,≤ 10,"CC(C)c1ncc(N2C[C@H](CS(C)(=O)=O)[C@H]2C)c2cnc(Nc3ccnc(N4CC[C@@](C)(O)[C@@H](F)C4)n3)cc12 (single isomer, unassigned) [Compound 138]"
≤ 15,10.1 to 20,"CC(C)c1ccc(N2C[C@H](CS(C)(=O)=O)[C@H]2C)c2cnc(Nc3cnnc(N4CC[C@](C)(O)[C@H](F)C4)n3)cc12 (single isomer, unassigned) [Compound 141]"
≤ 15,20.1 to 30,"CC(C)c1ccc(N2C[C@H](CS(C)(=O)=O)[C@H]2C)c2cnc(Nc3cnnc(N4CC[C@@](C)(O)[C@@H](F)C4)n3)cc12 (single isomer, unassigned) [Compound 142]"
≤ 15,≤ 10,"CO[C@@H]1CCN(c2nccc(Nc3cc4c(C(C)C)cnc(N5CC(CS(C)(=O)=O)C5)c4cn3)n2)C[C@]1(C)F (single isomer, unassigned) [Compound 143]"
15.1 to 20,20.1 to 30,"CCOc1ccc(N2CC(CS(=O)(=O)CC)C2)c2cnc(Nc3ccnc(N4CC[C@@H](O)[C@@](C)(F)C4)n3)cc12 (single isomer, unassigned) [Compound 145]"
≤ 15,≤ 10,"CO[C@@H]1[C@H](O)CN(c2nccc(Nc3cc4c(C(C)C)ccc(N5CC(CS(C)(=O)=O)C5)c4cn3)n2)C[C@@H]1F (single isomer, unassigned) [Compound 148, (3R,4R,5S)-5-fluoro-1-[4-({8-[3-(methanesulfonylmethyl)azetidin-1-yl]-5-(propan-2-yl)isoquinolin-3-yl}amino)pyrimidin-2-yl]-4-methoxypiperidin-3-ol or (3S,4S,5R)-5-fluoro-1-[4-({8-[3-(methanesulfonylmethyl)azetidin-1-yl]-5-(propan-2-yl)isoquinolin-3-yl}amino)pyrimidin-2-yl]-4-methoxypiperidin-3-ol]"
15.1 to 20,10.1 to 20,"CO[C@@H]1CN(c2nccc(Nc3cc4c(C(C)C)ccc(N5CC(CS(C)(=O)=O)C5)c4cn3)n2)C[C@H](F)[C@@H]1O (single isomer, unassigned) [Compound 149, (3S,4R,5R)-3-fluoro-1-[4-({8-[3-(methanesulfonylmethyl)azetidin-1-yl]-5-(propan-2-yl)isoquinolin-3-yl}amino)pyrimidin-2-yl]-5-methoxypiperidin-4-ol or (3R,4S,5S)-3-fluoro-1-[4-({8-[3-(methanesulfonylmethyl)azetidin-1-yl]-5-(propan-2-yl)isoquinolin-3-yl}amino)pyrimidin-2-yl]-5-methoxypiperidin-4-ol]"
≤ 15,≤ 10,"CC(C)c1ccc(N2C[C@H](CS(C)(=O)=O)[C@H]2C)c2cnc(Nc3ccnc(N4CC[C@H](N)C(F)(F)C4)n3)cc12 (single isomer, unassigned) [Compound 151, N-{2-[(4S)-4-amino-3,3-difluoropiperidin-1-yl]pyrimidin-4-yl}-8-[(2R,3S)-3-(methanesulfonylmethyl)-2-methylazetidin-1-yl]-5-(propan-2-yl)isoquinolin-3-amine or N-{2-[(4R)-4-amino-3,3-difluoropiperidin-1-yl]pyrimidin-4-yl}-8-[(2R,3S)-3-(methanesulfonylmethyl)-2-methylazetidin-1-yl]-5-(propan-2-yl)isoquinolin-3-amine]"
≤ 15,≤ 10,"CC(C)c1ccc(N2C[C@H](CS(C)(=O)=O)[C@H]2C)c2cnc(Nc3ccnc(N4CCC(N)C(F)(F)C4)n3)cc12 (single isomer, unassigned) [Compound 152, N-(2-((R)-4-amino-3,3-difluoropiperidin-1-yl)pyrimidin-4-yl)-5-isopropyl-8-((2R,3S)-2-methyl-3-(methylsulfonylmethyl)azetidin-1-yl(isoquinolin-3-amine or N-(2-((S)-4-amino-3,3-difluoropiperidin-1-yl)pyrimidin-4-yl)-5-isopropyl-8-((2R,3S)-2-methyl-3-((methylsulfonyl)methyl)azetidin-1-yl)isoquinolin-3-amine]"
≤ 15,10.1 to 20,"CC(C)c1ccc(N2CC(CS(C)(=O)=O)C2)c2cnc(Nc3ccnc(N4CC[C@](C)(O)C(F)(F)C4)n3)cc12 (single isomer, unassigned) [Compound 153, (4S)-3,3-difluoro-1-[4-({8-[3-(methanesulfonylmethyl)azetidin-1-yl]-5-(propan-2-yl)isoquinolin-3-yl}amino)pyrimidin-2-yl]-4-methylpiperidin-4-ol or (4R)-3,3-difluoro-1-[4-({8-[3-(methanesulfonylmethyl)azetidin-1-yl]-5-(propan-2-yl)isoquinolin-3-yl}amino)pyrimidin-2-yl]-4-methylpiperidin-4-ol]"
≤ 15,20.1 to 30,"CC(CF)c1ccc(N2CC(CS(C)(=O)=O)C2)c2cnc(Nc3ccnc(N4CC[C@@H](O)[C@@](C)(F)C4)n3)cc12 (single isomer, unassigned) [Compound 154]"

# From patent US12172983B2, “EGFR inhibitors” (Blueprint Medicines Corporation, priority 2019, dated 2024)
